pIC50: −log10 of the molar value.
Key:
[1] = target: CRBN-DDB1 (Homo sapiens, UniProt Q96SW2); assay: Compound binding to CRBN by HTRF assay; conditions: CRBN-DDB1 2.5 nM, Cy5-Thalidomide 100 nM, 30 min at ambient temperature; read-out: HTRF Class (Cereblon binding, HTRF IC50)
Procedure, shortened: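 Cy5-thalidomide (100 nM) displacement from His-tagged CRBN-DDB1 (2.5 nM) read by terbium-cryptate HTRF (665/620 nm), in 20 mM HEPES, 20 mM NaCl, 0.2 mM TCEP, 0.2 mM EDTA, 0.005% Tween20. Compounds tested as 10-point 1:3 series, 30 min at ambient temperature. Signal normalised to DMSO and lenalidomide controls; IC50 fitted, Ki by Cheng-Prusoff.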

[2] = target: T1, GSPT1 (Homo sapiens, UniProt P15170+Q96SW2); assay: Immunofluorescence assay for activity to degrade GSPT1 in CAL-51 cells; type: cell-based; conditions: 6 h treatment, read-out: IF Class (GSPT1 degradation, DC50)
T1 construct: CAL-51 cells were purchased from DSMZ (cat. Number ACC302); host or cells: CAL-51
T1 sequence (P15170 whole entry): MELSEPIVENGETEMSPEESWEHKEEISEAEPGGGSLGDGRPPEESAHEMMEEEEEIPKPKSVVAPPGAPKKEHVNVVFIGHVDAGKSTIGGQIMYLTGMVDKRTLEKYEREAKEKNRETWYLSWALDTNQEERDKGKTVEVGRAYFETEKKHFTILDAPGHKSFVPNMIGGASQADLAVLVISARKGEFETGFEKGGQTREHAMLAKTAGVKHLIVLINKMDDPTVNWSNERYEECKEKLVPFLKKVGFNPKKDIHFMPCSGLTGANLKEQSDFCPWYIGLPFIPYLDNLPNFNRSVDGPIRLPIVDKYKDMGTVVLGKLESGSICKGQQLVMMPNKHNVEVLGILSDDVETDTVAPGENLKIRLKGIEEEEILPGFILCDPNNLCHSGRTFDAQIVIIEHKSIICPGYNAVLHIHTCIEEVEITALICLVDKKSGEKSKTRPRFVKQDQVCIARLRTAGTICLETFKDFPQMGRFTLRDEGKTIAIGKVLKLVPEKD
T1 sequence (Q96SW2 whole entry): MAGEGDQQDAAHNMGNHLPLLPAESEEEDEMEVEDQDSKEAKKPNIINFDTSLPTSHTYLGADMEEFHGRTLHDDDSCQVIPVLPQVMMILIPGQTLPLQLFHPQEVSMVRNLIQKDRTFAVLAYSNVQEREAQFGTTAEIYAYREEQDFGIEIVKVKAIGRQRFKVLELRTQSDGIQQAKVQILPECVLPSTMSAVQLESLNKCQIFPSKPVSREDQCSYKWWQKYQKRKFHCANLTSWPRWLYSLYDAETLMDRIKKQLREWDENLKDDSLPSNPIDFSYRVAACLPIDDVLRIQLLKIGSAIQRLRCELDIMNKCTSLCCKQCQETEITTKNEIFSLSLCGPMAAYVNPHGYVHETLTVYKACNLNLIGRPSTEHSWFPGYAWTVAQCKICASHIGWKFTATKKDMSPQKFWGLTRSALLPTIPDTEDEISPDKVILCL
T1 sequence (Q16531 2-1140 partner limits assumed): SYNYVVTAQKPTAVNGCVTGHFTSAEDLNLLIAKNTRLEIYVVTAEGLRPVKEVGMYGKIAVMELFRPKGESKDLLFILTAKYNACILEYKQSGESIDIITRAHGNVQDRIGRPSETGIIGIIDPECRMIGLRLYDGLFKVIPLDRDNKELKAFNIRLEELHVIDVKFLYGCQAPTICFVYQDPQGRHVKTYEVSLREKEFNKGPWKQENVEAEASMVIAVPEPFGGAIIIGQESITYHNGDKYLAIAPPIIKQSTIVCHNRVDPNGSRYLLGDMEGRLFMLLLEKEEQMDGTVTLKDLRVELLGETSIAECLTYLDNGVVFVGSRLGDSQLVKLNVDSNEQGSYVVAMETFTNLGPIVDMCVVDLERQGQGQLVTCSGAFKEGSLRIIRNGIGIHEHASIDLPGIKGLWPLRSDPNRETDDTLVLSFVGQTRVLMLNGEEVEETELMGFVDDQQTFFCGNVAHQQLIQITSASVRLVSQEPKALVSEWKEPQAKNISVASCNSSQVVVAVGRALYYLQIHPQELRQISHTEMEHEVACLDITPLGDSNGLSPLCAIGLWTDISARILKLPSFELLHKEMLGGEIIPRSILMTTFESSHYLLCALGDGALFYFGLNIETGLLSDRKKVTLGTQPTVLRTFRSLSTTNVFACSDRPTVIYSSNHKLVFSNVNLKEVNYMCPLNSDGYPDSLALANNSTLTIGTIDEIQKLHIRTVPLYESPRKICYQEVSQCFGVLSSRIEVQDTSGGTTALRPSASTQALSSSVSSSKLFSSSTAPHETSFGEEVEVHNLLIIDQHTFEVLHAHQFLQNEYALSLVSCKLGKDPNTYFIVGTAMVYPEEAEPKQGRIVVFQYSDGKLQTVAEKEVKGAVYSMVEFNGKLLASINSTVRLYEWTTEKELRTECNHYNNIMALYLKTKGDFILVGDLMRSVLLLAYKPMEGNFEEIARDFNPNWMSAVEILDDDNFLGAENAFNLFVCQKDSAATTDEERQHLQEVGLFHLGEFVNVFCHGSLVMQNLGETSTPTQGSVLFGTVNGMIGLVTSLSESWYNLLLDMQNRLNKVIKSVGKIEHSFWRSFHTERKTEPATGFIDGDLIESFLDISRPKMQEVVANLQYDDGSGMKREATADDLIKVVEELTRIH
Procedure, shortened: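 CAL-51 cells treated 6 h with compound (30 μM to 0.1 nM), fixed, immunostained for GSPT1 with DAPI and phalloidin counterstains, imaged by high-content microscopy. Mean per-cell GSPT1 intensity normalized to controls; DC50 by non-linear regression.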

Sequence of CRBN-DDB1 (Q96SW2 whole entry): as the sequence (Q96SW2 whole entry) above
Sequence of CRBN-DDB1 (Q16531 whole entry partner): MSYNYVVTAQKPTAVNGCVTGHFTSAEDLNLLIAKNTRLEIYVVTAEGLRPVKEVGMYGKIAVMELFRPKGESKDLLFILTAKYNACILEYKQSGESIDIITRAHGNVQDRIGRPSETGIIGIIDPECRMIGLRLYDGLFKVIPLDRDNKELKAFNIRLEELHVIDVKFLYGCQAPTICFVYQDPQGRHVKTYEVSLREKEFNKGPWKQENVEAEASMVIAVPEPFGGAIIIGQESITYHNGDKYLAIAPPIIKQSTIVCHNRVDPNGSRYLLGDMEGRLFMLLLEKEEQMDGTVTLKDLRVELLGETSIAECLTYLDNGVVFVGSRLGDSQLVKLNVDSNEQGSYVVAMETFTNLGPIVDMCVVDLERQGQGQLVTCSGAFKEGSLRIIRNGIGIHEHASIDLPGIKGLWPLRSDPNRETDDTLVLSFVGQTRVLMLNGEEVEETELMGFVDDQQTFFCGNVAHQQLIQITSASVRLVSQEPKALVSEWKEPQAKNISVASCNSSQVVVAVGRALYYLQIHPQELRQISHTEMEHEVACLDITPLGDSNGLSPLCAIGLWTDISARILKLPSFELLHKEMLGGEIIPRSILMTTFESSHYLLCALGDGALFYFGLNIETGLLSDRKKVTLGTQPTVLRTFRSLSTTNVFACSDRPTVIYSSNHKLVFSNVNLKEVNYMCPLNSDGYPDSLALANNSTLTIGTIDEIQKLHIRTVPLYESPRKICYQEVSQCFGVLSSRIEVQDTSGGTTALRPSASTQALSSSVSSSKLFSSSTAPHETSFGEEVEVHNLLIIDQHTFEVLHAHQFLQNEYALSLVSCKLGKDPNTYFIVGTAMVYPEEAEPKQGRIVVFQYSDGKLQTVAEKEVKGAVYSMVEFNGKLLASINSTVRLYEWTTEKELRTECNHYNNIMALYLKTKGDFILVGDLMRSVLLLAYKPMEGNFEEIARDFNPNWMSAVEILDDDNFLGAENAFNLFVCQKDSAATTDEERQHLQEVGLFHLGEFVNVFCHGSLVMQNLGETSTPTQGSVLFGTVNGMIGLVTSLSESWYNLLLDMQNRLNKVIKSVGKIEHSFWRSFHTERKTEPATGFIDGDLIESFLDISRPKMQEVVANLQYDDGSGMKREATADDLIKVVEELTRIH

Row | SMILES | pIC50 [1] | DC50 [2] [nM]
1 | O=C1CCC(c2c(F)cc(N3CC(OC(=O)NC4CCC4)C3)cc2F)C(=O)N1 (stereo not drawn) [Compound 90, 1-(4-(2,6-dioxopiperidin-3-yl)-3,5-difluorophenyl) azetidin-3-yl cyclobutylcarbamate] | 6.00 to 7.00 | > 300
2 | O=C1CCC(c2c(F)cc(N3CC(OC(=O)NCc4ccccc4)C3)cc2F)C(=O)N1 (stereo not drawn) [Compound 137, 1-(4-(2,6-dioxopiperidin-3-yl)-3,5-difluorophenyl)azetidin-3-yl benzylcarbamate] | ≥ 7.00 | 30 to 300
3 | O=C1CCC(c2c(F)cc(N3CC(OC(=O)NCC4CC(F)(F)C4)C3)cc2F)C(=O)N1 (stereo not drawn) [Compound 96, 1-(4-(2,6-dioxopiperidin-3-yl)-3,5-difluorophenyl)azetidin-3-yl ((3,3-difluorocyclobutyl)methyl)carbamate] | 6.00 to 7.00 | 30 to 300
4 | O=C1CCC(c2c(F)cc(N3CC(OC(=O)Nc4cc(Cl)cc(OC(F)F)c4)C3)cc2F)C(=O)N1 (stereo not drawn) [Compound 38, 1-(4-(2,6-dioxopiperidin-3-yl)-3,5-difluorophenyl)azetidin-3-yl(3-chloro-5-(difluoromethoxy)phenyl) carbamate] | 6.00 to 7.00 | 30 to 300
5 | CC(C)(C)NC(=O)OC1CN(c2cc(F)c(C3CCC(=O)NC3=O)c(F)c2)C1 (stereo not drawn) [Compound 89, 1-(4-(2,6-dioxopiperidin-3-yl)-3,5-difluorophenyl)azetidin-3-yl tert-butylcarbamate] | 6.00 to 7.00 | > 300
6 | O=C1CCC(c2c(F)cc(N3CC(OC(=O)Nc4cc(OC(F)(F)F)ccc4F)C3)cc2F)C(=O)N1 (stereo not drawn) [Compound 33, 1-(4-(2,6-dioxopiperidin-3-yl)-3,5-difluorophenyl)azetidin-3-yl (2-fluoro-5-(trifluoromethoxy)phenyl)carbamate] | 6.00 to 7.00 | ≤ 30
7 | Cc1ccc(NC(=O)NC2CN(c3cc(F)c(C4CCC(=O)NC4=O)c(F)c3)C2)cc1Cl (stereo not drawn) [Compound 1, 1-(3-chloro-4-methylphenyl)-3-(1-(4-(2,6-dioxopiperidin-3-yl)-3,5-difluorophenyl)azetidin-3-yl)urea] | 6.00 to 7.00 | ≤ 30
8 | O=C1CCC(c2c(F)cc(N3CC(OC(=O)NC4CCCCC4)C3)cc2F)C(=O)N1 (stereo not drawn) [Compound 79, 1-(4-(2,6-dioxopiperidin-3-yl)-3,5-difluorophenyl)azetidin-3-yl cyclohexylcarbamate] | 6.00 to 7.00 | 30 to 300
9 | Cc1ccc(NC(=O)NC2CN(c3ccc(C4CCC(=O)NC4=O)c(F)c3)C2)cc1Cl (stereo not drawn) [Compound 7, 1-(3-chloro-4-methylphenyl)-3-(1-(4-(2,6-dioxopiperidin-3-yl)-3-fluorophenyl)azetidin-3-yl)urea] | 6.00 to 7.00 | 30 to 300
10 | O=C1CCC(c2c(F)cc(N3CC(OC(=O)NC45CC(C4)C5)C3)cc2F)C(=O)N1 (stereo not drawn) [Compound 63, 1-(4-(2,6-dioxopiperidin-3-yl)-3,5-difluorophenyl)azetidin-3-yl bicyclo[1.1.1]pentan-1-ylcarbamate] | 6.00 to 7.00 | > 300
11 | C[C@@H]1CCCN1c1ccc(NC(=O)OC2CN(c3cc(F)c(C4CCC(=O)NC4=O)c(F)c3)C2)cn1 (stereo partly drawn) [Compound 10, 1-(4-(2,6-dioxopiperidin-3-yl)-3,5-difluorophenyl)azetidin-3-yl (6-((R)-2-methylpyrrolidin-1-yl)pyridin-3-yl)carbamate] | ≥ 7.00 | ≤ 30
12 | O=C1CCC(c2c(F)cc(N3CC(NC(=O)Nc4cc(OC(F)(F)F)ccn4)C3)cc2F)C(=O)N1 (stereo not drawn) [Compound 27, 1-(1-(4-(2,6-dioxopiperidin-3-yl)-3,5-difluorophenyl)azetidin-3-yl)-3-(4-(trifluoromethoxy)pyridin-2-yl)urea] | ≥ 7.00 | 30 to 300
13 | O=C1CCC(c2c(F)cc(N3CC(OC(=O)NC4CCCC4)C3)cc2F)C(=O)N1 (stereo not drawn) [Compound 92, 1-(4-(2,6-dioxopiperidin-3-yl)-3,5-difluorophenyl)azetidin-3-yl cyclopentylcarbamate] | 6.00 to 7.00 | > 300
14 | CC1(NC(=O)OC2CN(c3cc(F)c(C4CCC(=O)NC4=O)c(F)c3)C2)CCCCC1 (stereo not drawn) [Compound 135, 1-(4-(2,6-dioxopiperidin-3-yl)-3,5-difluorophenyl)azetidin-3-yl (1-methylcyclohexyl)carbamate] | ≥ 7.00 | ≤ 30
15 | Cc1ccccc1-c1ccc(NC(=O)NC2CN(c3cc(F)c(C4CCC(=O)NC4=O)c(F)c3)C2)cn1 (stereo not drawn) [Compound 23, 1-(1-(4-(2,6-dioxopiperidin-3-yl)-3,5-difluorophenyl)azetidin-3-yl)-3-(6-(o-tolyl)pyridin-3-yl)urea] | ≥ 7.00 | ≤ 30
16 | Cc1cc(C)cc(NC(=O)OC2CN(c3ccc(C4CCC(=O)NC4=O)c(Cl)c3)C2)c1 (stereo not drawn) [Compound 31, 1-(3-chloro-4-(2,6-dioxopiperidin-3-yl)phenyl)azetidin-3-yl (3,5-dimethylphenyl)carbamate] | 6.00 to 7.00 | > 300
17 | Cc1c(Cl)cc(NC(=O)NC2CN(c3cc(F)c(C4CCC(=O)NC4=O)c(F)c3)C2)cc1CN1CC2CC1CO2 (stereo not drawn) [Compound 9, 1-(3-(2-oxa-5-azabicyclo[2.2.1]heptan-5-ylmethyl)-5-chloro-4-methylphenyl)-3-(1-(4-(2,6-dioxopiperidin-3-yl)-3,5-difluorophenyl)azetidin-3-yl)urea] | ≥ 7.00 | ≤ 30
18 | CC1(c2ccc(NC(=O)OC3CN(c4cc(F)c(C5CCC(=O)NC5=O)c(F)c4)C3)cc2)CC1 (stereo not drawn) [Compound 58, 1-(4-(2,6-dioxopiperidin-3-yl)-3,5-difluorophenyl)azetidin-3-yl (4-(1-methylcyclopropyl)phenyl)carbamate] | 6.00 to 7.00 | 30 to 300
19 | O=C1CCC(c2c(F)cc(N3CC(NC(=O)N[C@H]4C[C@H](c5ccccc5)C4)C3)cc2F)C(=O)N1 (stereo partly drawn) [Compound 77, 1-(1-(4-(2,6-dioxopiperidin-3-yl)-3,5-difluorophenyl)azetidin-3-yl)-3-((1R,3R)-3-phenylcyclobutyl)urea] | 6.00 to 7.00 | ≤ 30
20 | CC(C)(C)N1CC(NC(=O)OC2CN(c3cc(F)c(C4CCC(=O)NC4=O)c(F)c3)C2)C1 (stereo not drawn) [Compound 126, 1-(4-(2,6-dioxopiperidin-3-yl)-3,5-difluorophenyl)azetidin-3-yl(1-(tert-butyl)azetidin-3-yl)carbamate] | ≥ 7.00 | > 300
21 | O=C1CCC(c2c(F)cc(N3CC(OC(=O)Nc4cccc(OC(F)(F)F)c4)C3)cc2F)C(=O)N1 (stereo not drawn) [Compound 3, 1-(4-(2,6-dioxopiperidin-3-yl)-3,5-difluorophenyl)azetidin-3-yl(3-(trifluoromethoxy)phenyl) carbamate] | 6.00 to 7.00 | ≤ 30
22 | O=C1CCC(c2c(F)cc(N3CC(OC(=O)NC4COC4)C3)cc2F)C(=O)N1 (stereo not drawn) [Compound 95, 1-(4-(2,6-dioxopiperidin-3-yl)-3,5-difluorophenyl)azetidin-3-yl oxetan-3-ylcarbamate] | 6.00 to 7.00 | > 300
23 | CC1(c2ccc(NC(=O)OC3CN(c4cc(F)c(C5CCC(=O)NC5=O)c(F)c4)C3)cn2)CC1 (stereo not drawn) [Compound 43, 1-(4-(2,6-dioxopiperidin-3-yl)-3,5-difluorophenyl)azetidin-3-yl(6-(1-methylcyclopropyl)pyridin-3-yl) carbamate] | 6.00 to 7.00 | ≤ 30
24 | Cc1cc(C)cc(NC(=O)NC2CN(c3ccc(C4CCC(=O)NC4=O)cc3)C2)c1 (stereo not drawn) [Compound 67, 1-(3,5-dimethylphenyl)-3-(1-(4-(2,6-dioxopiperidin-3-yl)phenyl)azetidin-3-yl)urea] | 6.00 to 7.00 | 30 to 300
25 | Cc1c(Cl)cc(NC(=O)OC2CN(c3cc(F)c(C4CCC(=O)NC4=O)c(F)c3)C2)cc1OCCN1CCOCC1 (stereo not drawn) [Compound 52, 1-(4-(2,6-dioxopiperidin-3-yl)-3,5-difluorophenyl)azetidin-3-yl(3-chloro-4-methyl-5-(2-morpholinoethoxy)phenyl)carbamate] | 6.00 to 7.00 | ≤ 30
26 | O=C1CCC(c2c(F)cc(N3CC(OC(=O)N4CCC(F)(F)CC4)C3)cc2F)C(=O)N1 (stereo not drawn) [Compound 142, 1-(4-(2,6-dioxopiperidin-3-yl)-3,5-difluorophenyl)azetidin-3-yl 4,4-difluoropiperidine-1-carboxylate] | 6.00 to 7.00 | > 300
27 | O=C1CCC(c2c(F)cc(N3CC(OC(=O)N[C@@H]4CC5CCC4C5)C3)cc2F)C(=O)N1 (stereo partly drawn) [Compound 140, 1-(4-(2,6-dioxopiperidin-3-yl)-3,5-difluorophenyl)azetidin-3-yl(2R)-bicyclo[2.2.1]heptan-2-ylcarbamate] | ≥ 7.00 | 30 to 300
28 | O=C1CCC(c2c(F)cc(N3CC(OC(=O)NC4CC5(CCC5)C4)C3)cc2F)C(=O)N1 (stereo not drawn) [Compound 138, 1-(4-(2,6-dioxopiperidin-3-yl)-3,5-difluorophenyl)azetidin-3-yl spiro[3.3]heptan-2-ylcarbamate] | ≥ 7.00 | ≤ 30
29 | C[C@H](NC(=O)OC1CN(c2cc(F)c(C3CCC(=O)NC3=O)c(F)c2)C1)c1ccccc1 (stereo partly drawn) [Compound 130, 1-(4-(2,6-dioxopiperidin-3-yl)-3,5-difluorophenyl)azetidin-3-yl((S)-1-phenylethyl) carbamate] | 6.00 to 7.00 | > 300
30 | Cc1cc(C#N)cc(NC(=O)OC2CN(c3cc(F)c(C4CCC(=O)NC4=O)c(F)c3)C2)c1 (stereo not drawn) [Compound 49, 1-(4-(2,6-dioxopiperidin-3-yl)-3,5-difluorophenyl)azetidin-3-yl (3-cyano-5-methylphenyl) carbamate] | 6.00 to 7.00 | 30 to 300

Reference: patent publication US20240308976A1, “COMPOUNDS THAT MEDIATE PROTEIN DEGRADATION AND USES THEREOF” (Monte Rosa Therapeutics, Inc., priority 2021, published 2024)
